Measured values reported in paper PMC7076013 (Scientific Reports, 2020).

Experiments:
Type in all cases: cell-based, human
A375 cells [1] = test: Scratch (wound healing) test, A375; conditions: A375, treated cells, IC50 dose, 48 h; control decreased from 172 ± 69 to 127 ± 13
Method: (§1) It was observed that the wound in the control of the A375 cells decreased from 172 ± 69 μm to 127 ± 13 μm, compared to the treated cells where it stayed at 177 ± 32 μm. […] (Fig. 10A).To confirm this, the cell proliferation rate was determined after 72 h of incubation in the presence of 5 of the carboxyfluorescein succinimidyl ester (CFSE)-stained cells. […] These findings were further confirmed by fluorescence microscopy of 4′,6-diamidino-2-phenylindole (DAPI)-stained cells (Fig. 10C), for which predominantly large nuclei with scarce nucleoli characteristic for interphase were observed on treatment of A375 cells with 5[60]. In addition, sporadic oblong nuclei with condensed chromatin, typical for apoptosis, were also observed (25 ± 9%). On the other hand in the DAPI-stained 518A2 cells typical apoptotic shrunken nuclei and apoptotic bodies were dominant (60 ± 2%)[61]. The different modes of action on the two melanoma cell lines indicate that cell specific characteristics define the outcome of the treatment with 5. […] Recent data on the compensatory proliferation in response to induced apoptotic cell death in the tumor tissue even favor a nonaggressive approach in the therapy of advanced malignancy. […]
(§2) To quantify cell division rate, cells were incubated for 10 min at 37 °C in the presence of […]
(§3) subsequentl y quantified using flow c ytomet r y. […]

518A2 cells [2] = test: Scratch (wound healing) test, 518A2; conditions: 518A2, IC50 dose, 48 h
Method: as §1, §2, §3

A375 cells [3] = test: Intracellular ROS/RNS (DHR), A375; conditions: A375, 48 h; untreated 22.3 ± 5
Method: (§4) Given that analogue 5 is designed for NO release, the intracellular release of nitric oxide and production of reactive oxygen species (ROS)/reactive nitrogen species (RNS) was measured by means of redox-sensitive dyes — 4-amino-5-methylamino-2′,7′-difluorofluorescein diacetate (DAF) and dihydrorhodamine-123 (DHR) — after exposure for 48 h (Fig. 11). […] It is well documented that highly intensified production of ROS/RNS is connected with extreme cell damage and consequent cell death, whereas moderate ROS production is involved in the regulation of intracellular processes often involved in cell cycle arrest, proliferation, and differentiation[63],[64]. Apart from the moderate intracellular NO release, it was important to evaluate whether 5 released NO extracellularly. The production of NO from a nitrate group is a three-electron reduction process that can happen by a number of possible 2e^– and 1e^– pathways, commonly involving the initial liberation of a nitrite. A common method of detecting the release of NO in the extracellular compartment is the detection of nitrite ions by the Griess reaction, which quantifies the nitrite resulting from the oxidation of NO[66],[67]. […] Introduction of a nitrate moiety was also found to be beneficial in the case of rofecoxib. […]

518A2 cells [4] = test: Ann/PI apoptosis and caspase activation, 518A2; conditions: 518A2, 48 h
A375 cells [5] = test: Caspase activation (ApoStat), A375; conditions: A375, 48 h
Method: (§5) The results were ex pressed as a p er centage of a v alue obtained for the untr eated control cells that was arbitrarily set to be 100%. A non- linear regression analysis of obtained results was done b y using Gr aphPad Prism software to calculat e IC50 values.
3.3. AnnexinV-FITC/P I and caspase det ection.
A375 cells were treated with 5 for 48 h, trypsinized, and stained with AnnexinV-FITC (Ann) or propidium iodide (PI), or apostat as proposed by the manufacturer. C ells were anal yz ed b y C yFlow® Space Part ec u sing the PartecFloM ax ® software.
(§6) 3.4. Cell staining with CFSE.
as §2
(§7) subsequentl y quantified using flow c ytomet r y.
(§8) Cell motilit y and proliferation was anal yz ed using wound healing assa y. A375 and 518A2 cells were cultivated in 6-well plates until 80% of confluence in monola yers w as reached. Th e scratch was made using a steri le pipette tip which was drawn across the center of the wells. The scratch ed cell la yers w ere wash ed twice with fres h PBS to remove loose or damaged cells. Cells […]
(§9) 4% paraformald eh yde (PFA) for 10 min at room temperature . The wounds were digitally photographed using a Ni kon inverted microscope TS2 with 5 MPIX cam era.
(§10) 3.6. Measurement of intracellular nitric oxide

A375 cells [6] = test: Intracellular NO (DAF), A375; conditions: A375, 48 h; untreated 40 ± 7
Method: as §4

A375 cells [7] = test: Ann/PI double staining apoptosis, A375
Method: as §5
3.3. AnnexinV-FITC/P I and caspase det ection. […]
C ells were anal yz ed b y
C yFlow® Space Part ec u sing the PartecFloM ax ® software.
as §6, §2, §7, §8, §9, §10

518A2 cells [8] = test: Intracellular NO (DAF), 518A2; conditions: 518A2, 48 h; untreated 44.9 ± 5.9
Method: as §4

A375 cells [9] = test: Light microscopy of A375 cultures (oval vs. fibroblast-like cells); conditions: A375, treated cells, 48 h
Source text: It is known that the A375 cell line has a heterogeneous morphology with a subpopulation of highly metastatic oval cells. […] Thus, it can be concluded that compound 5 affected the two populations in different manners with a stronger effect on the metastatic oval cells.

A375 cells [10] = test: CFSE cell proliferation, A375; conditions: A375, 72 h
Method: as §1, §2, §3

Substance: 4-[4-(methylnitrooxy)phenyl]-3-(1,2-dicarba-closo-dodecaboranyl)furan-2(5 H)-one [Compound 5]
- wound width in scratch test (A375 cells [1]): 177 ± 32 μm
- wound in scratch test (518A2 cells [2]): impossible to distinguish the edges of the wound
- ROS/RNS production, mean fluorescence (DHR) (A375 cells [3]): 32.67 ± 8
- apoptosis (Ann/PI, caspase) (518A2 cells [4]): strong caspase-dependent apoptosis
- total caspase activity (ApoStat) (A375 cells [5]): only a slight enhancement of total caspase activity
- intracellular NO, mean fluorescence (DAF) (A375 cells [6]): 60.5 ± 9.1
- apoptosis (Ann/PI) (A375 cells [7]; A375, 48 h): did not promote significant apoptosis
- apoptosis after prolonged incubation (A375 cells [7]; A375, 72 h total): not accompanied by the appearance of apoptotic cells
- intracellular NO, mean fluorescence (DAF) (518A2 cells [8]): 97.7 ± 1.2
- % of oval cells (A375 cells [9]; control 46 ± 2.8): 28 ± 2.6%
- % of fibroblast-like cells (A375 cells [9]; control 54 ± 3.2): 72 ± 7.4%
- elevation of % of undivided cells (CFSE) vs control (A375 cells [10]): 38 ± 8%
